This passage reports EC50 results from ChEMBL document CHEMBL3044842, “Composition and antifungal activity on soil-borne pathogens of the essential oil of Salvia sclarea from Greece” (J Agric Food Chem, 2002).

Common to all, as to format: functional, organism-based
Assay [1] has as its system Fusarium oxysporum f. sp. dianthi. Description: Antifungal activity against Fusarium oxysporum f. sp. dianthi after 4 days.
For the next assay, the system named is Stromatinia cepivora. Kind of assay: Antifungal activity against Sclerotium cepivorum after 4 days.
The next assay concerns Sclerotinia sclerotiorum. Kind of assay: Antifungal activity against Sclerotinia sclerotiorum after 4 days.

The structures appear in SMILES notation. Some results are limits rather than exact numbers.

For `C=CC(C)(CCC=C(C)C)OC(C)=O` (stereo unspecified) [LINALYL ACETATE], the results for the EC50 (in assay [1]; in the assay with Stromatinia cepivora; in the assay with Sclerotinia sclerotiorum) were > 1500 uL/L, > 1500 uL/L and 549.62 uL/L, respectively.
Take `C=CC(C)(O)CCC=C(C)C` (stereo unspecified) [LINALOOL]: the results for the EC50 (in assay [1]; with Stromatinia cepivora; in the assay with Sclerotinia sclerotiorum) were 661.76 uL/L, 563.94 uL/L and 146.15 uL/L, respectively.
